From publication PMC5373622, “Screening for AMPA receptor auxiliary subunit specific modulators” (PLoS ONE, 2017)
pEC50: −log10 of the molar value. Values joined by “and” are separate entries in the source; they are usually repeats but may differ in a detail not shown here. Equal entries are not always repeated. Where two headings read alike, the source gives them in different places.

Key:
[1] = biological target: GluA2flip(R)-stargazin (A2R-stg TetON HEK293 cells) (Homo sapiens, UniProt P42262, Q607R); assay: Voltage-sensitive dye (VSD) assay (primary screen, counter-screen, CRC) on A2R-stg cells; conditions: for BaselineReturn: max 250-255 s minus min 0-5 s; for CMPDmaxmin: max-min 8-100 s; for CMPDmaxmin / CMPDSlope: only compound present; for Glumaxmin: max-min normalized value 301-380 s; for Glumaxmin / GluSlope: compound and glutamate present; for GluSlope: slope 310-315 s; for CMPDSlope: slope 11-18 s
Chain of GluA2flip(R)-stargazin (A2R-stg TetON HEK293 cells) (P42262 25-883 isoform P42262-2 Q607R limits assumed): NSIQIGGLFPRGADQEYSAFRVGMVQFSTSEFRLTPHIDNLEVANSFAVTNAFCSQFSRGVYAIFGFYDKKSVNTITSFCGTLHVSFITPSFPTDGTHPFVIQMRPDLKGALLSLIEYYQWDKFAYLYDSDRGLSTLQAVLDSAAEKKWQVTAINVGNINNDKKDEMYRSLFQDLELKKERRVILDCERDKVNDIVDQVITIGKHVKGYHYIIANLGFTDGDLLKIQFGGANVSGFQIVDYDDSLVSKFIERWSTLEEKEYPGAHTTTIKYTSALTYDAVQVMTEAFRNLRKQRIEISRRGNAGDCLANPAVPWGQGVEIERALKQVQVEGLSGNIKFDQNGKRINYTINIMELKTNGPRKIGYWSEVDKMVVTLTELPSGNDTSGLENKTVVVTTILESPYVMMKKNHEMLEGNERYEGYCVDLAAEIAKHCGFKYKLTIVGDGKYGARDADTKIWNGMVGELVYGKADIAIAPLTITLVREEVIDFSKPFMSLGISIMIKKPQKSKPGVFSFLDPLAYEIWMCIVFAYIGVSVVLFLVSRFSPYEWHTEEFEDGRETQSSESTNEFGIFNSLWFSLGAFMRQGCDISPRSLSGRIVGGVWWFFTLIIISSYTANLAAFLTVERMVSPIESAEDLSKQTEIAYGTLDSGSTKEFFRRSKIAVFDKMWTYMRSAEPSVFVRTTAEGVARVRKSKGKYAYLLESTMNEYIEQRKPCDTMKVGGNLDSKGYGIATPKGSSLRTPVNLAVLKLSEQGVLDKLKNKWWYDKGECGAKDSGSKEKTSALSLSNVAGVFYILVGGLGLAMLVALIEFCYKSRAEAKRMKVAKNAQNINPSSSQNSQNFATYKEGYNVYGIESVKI
Chain of GluA2flip(R)-stargazin (A2R-stg TetON HEK293 cells) (Q9Y698 whole entry partner): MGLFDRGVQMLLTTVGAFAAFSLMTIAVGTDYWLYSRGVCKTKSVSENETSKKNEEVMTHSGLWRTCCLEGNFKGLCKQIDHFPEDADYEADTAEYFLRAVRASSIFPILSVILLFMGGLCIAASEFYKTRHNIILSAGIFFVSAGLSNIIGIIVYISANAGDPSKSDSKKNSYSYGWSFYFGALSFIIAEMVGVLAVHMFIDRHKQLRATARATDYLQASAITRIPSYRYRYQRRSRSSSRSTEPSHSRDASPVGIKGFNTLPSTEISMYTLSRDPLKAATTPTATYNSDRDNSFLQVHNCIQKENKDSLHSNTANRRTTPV
Method: Cell lines used in the VSD assays were TetON HEK293 cells. […] We used GluA2flip(R) TetON HEK cell clone #4 that doxycycline (DOX) dependently expresses GluA2flip(R) (A2R). The A2R cells were used as the base cell line to derive cell lines that co-express auxiliary subunits.
(§1) Greiner 384-pp round-bottom plates containing glutamate for the second add were dispensed by hand using a multi-channel pipet at 5X final concentration. A2R-stg cells were plated in 384-well BD PureCoat amine-coated plates (Corning Life Sciences) at 16k cells/well in DMEM medium supplemented with 10% heat-inactivated FBS and 100U/mL PenStrep antibiotic. […] Cells were incubated overnight (O/N) and washed 4 times in HBSS containing 20 mM HEPES, pH 7.4, on an ELX405CW liquid aspirator and dispenser (BioTek). Buffer was left in the wells and an equal amount of 2X FLIPR dye solution was added and incubated on the cells at room temperature for 45 min. Fluorescence signal was collected at 1 Hz using Ex. 480±20 nm/Em. 540±40 nm on a Hamamatsu Functional Drug Screening System 6000 (FDSS). Baseline signal was collected for 10 seconds followed by addition of 10 μl of 5X compound for a final concentration of 10 μM.
Hits were selected from this initial screen using 4 different criteria, which we termed CMPDslope, CMPDmaxmin, GLUslope, and GLUmaxmin. […] GLUslope is the fitted slope of the increase in fluorescence within 10 sec after adding glutamate. GLUmaxmin is the difference in the minimum and maximum value in fluorescence signal reached in the 100 sec window after adding glutamate. Compounds were classified as hits if they differed by 3 standard deviations of the mean for each criterion. Tier 1 hits were classified as those that hit in the GLUslope, GLUmaxmin, and CMPDmaxmin windows. Tier 2 hits were classified as compounds that hit in the GLUslope window and either the GLUmaxmin or CMPDmaxmin window. Tier 3 hits were classified as those that hit in only the GLUslope or the GLUmaxmin window. Tier 4 hits were classified as compounds that hit only in the CMPD window, CMPDslope or CMPDmaxmin. Hit selection was further narrowed using the criterion that their signal must return to near baseline values before entering the glutamate add window.
VSD concentration response curves (CRCs): After the above counter-screens, compounds that remained positive were moved forward to collect complete CRCs for A2R-stg and A2R-C3 cell lines. This assay was carried out in the same way as the VSD screening assay except a 10-point concentration curve, from 40 μM to 10 nM, was plated in triplicate for each compound on a single 384-well plate. Data were summarized by plotting them as %max GLUslope against log [compound] that was fit to a four-parameter logistical model. %max GLUslope is defined as a normalized GLUslope expressed as a percentage of the mean maximum GLUslope, defined as 100, where background mean vehicle control (VHLslope) were subtracted from both values on a per plate basis. Thus, %max GLU slope = (GLUslope-mean VHLslope/mean maxGLUslope-mean VHLslope).

[2] = system: GluA2-stargazin; conditions: previously reported; cited from earlier work
[3] = biological target: GluA2flip(R)-CNIH3 (A2R-C3 TetON HEK293 cells) (Homo sapiens, UniProt P42262, Q607R); assay: VSD assay (counter-screen, CRC) on A2R-C3 cells; conditions: for CMPDmaxmin: max-min 8-100 s; for CMPDmaxmin / CMPDSlope: compound only; for Glumaxmin: max-min normalized value 301-380 s; for Glumaxmin / GluSlope: compound+glutamate; for BaselineReturn: max 250-255 s minus min 0-5 s; for GluSlope: slope of normalized value 310-315 s; for CMPDSlope: slope 11-18 s
Chain of GluA2flip(R)-CNIH3 (A2R-C3 TetON HEK293 cells) (P42262 25-883 isoform P42262-2 Q607R limits assumed): as the sequence (P42262 25-883 isoform P42262-2 Q607R limits assumed) above
Chain of GluA2flip(R)-CNIH3 (A2R-C3 TetON HEK293 cells) (Q8TBE1 whole entry partner): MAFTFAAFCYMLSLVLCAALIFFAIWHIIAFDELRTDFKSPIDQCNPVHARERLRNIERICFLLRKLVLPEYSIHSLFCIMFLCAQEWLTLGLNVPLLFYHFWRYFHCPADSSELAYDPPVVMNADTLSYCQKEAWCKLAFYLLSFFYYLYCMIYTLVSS
From the text: Cell lines used in the VSD assays were TetON HEK293 cells. This was the parental cell line for all stable cell lines created. We used GluA2flip(R) TetON HEK cell clone #4 that doxycycline (DOX) dependently expresses GluA2flip(R) (A2R). The A2R cells were used as the base cell line to derive cell lines that co-express auxiliary subunits.
as §1
This assay was carried out in the same way as the VSD screening assay except a 10-point concentration curve, from 40 μM to 10 nM, was plated in triplicate for each compound on a single 384-well plate. Data were summarized by plotting them as %max GLUslope against log [compound] that was fit to a four-parameter logistical model. %max GLUslope is defined as a normalized GLUslope expressed as a percentage of the mean maximum GLUslope, defined as 100, where background mean vehicle control (VHLslope) were subtracted from both values on a per plate basis. Thus, %max GLU slope = (GLUslope-mean VHLslope/mean maxGLUslope-mean VHLslope).

[4] = 3.90625e-6 M, per well, plate 58169DST7
[5] = 7.8125e-6 M, per well, plate 58169DST7
[6] = 1.5625e-5 M, per well, plate 58169DST7
[7] = 3.125e-5 M, per well, plate 58169DST7
[8] = 6.25e-5 M, per well, plate 58169DST7

## O=C(c1ccc2c(c1)OCCO2)N1CCCCC1 [CX-546, 1-(1,4-benzodioxan-6-ylcarbonyl)piperidine]
[1]
  pEC50: 4.23
[1]; [4]
  CMPDmaxmin (maximal - minimal normalized value, 8-100 s, only compound present): 0.02005 and 0.02265 and 0.02255 and 0.0215 and 0.02263
  pctMAX (Glumaxmin as percentage MAX): -20.3423% and -18.5877% and -17.4231% and -25.653% and -23.4431%
  pctMAXslope (GluSlope as percentage MAX): 19.0119% and 16.1163% and 16.1435% and 23.5293% and 24.5477% and 19.9769%
  pctMAXslopeCMPD (CMPDSlope as percentage MAX): 26.8078% and 27.859% and 27.6784% and 25.3948% and 25.8066% and 27.049%
[1]; [5]
  CMPDmaxmin (maximal - minimal normalized value, 8-100 s, only compound present): 0.02204 and 0.02518 and 0.02221 and 0.01901
  pctMAXslope (GluSlope as percentage MAX): 18.0524% and 15.893% and 18.8435% and 18.5798% and 25.5404% and 27.1839%
  pctMAXslopeCMPD (CMPDSlope as percentage MAX): 27.7492% and 27.8022% and 28.8582% and 27.2592% and 26.4835% and 26.0048%
[1]; [6]
  CMPDmaxmin (maximal - minimal normalized value, 8-100 s, only compound present): 0.02181 and 0.01695 and 0.02869 and 0.01943 and 0.02297
  pctMAXslopeCMPD (CMPDSlope as percentage MAX): 28.6064% and 25.6086% and 27.9557% and 25.483% and 25.9044% and 26.6639%
[1]; [7]
  pctMAX (Glumaxmin as percentage MAX): -24.1315% and -27.3641% and -24.1538% and -25.136% and -22.907% and -18.6431%
  pctMAXslope (GluSlope as percentage MAX): 27.6745% and 23.6277% and 22.7715% and 21.1161% and 24.5423% and 29.8099%
  pctMAXslopeCMPD (CMPDSlope as percentage MAX): 26.044% and 27.2438% and 26.2272% and 24.5792% and 27.7844% and 28.3201%
[1]; [8]
  BaselineReturn (maximal normalized value 250-255 s minus minimal 0-5 s): 0.01812 and 0.0231 and 0.02286
  CMPDmaxmin (maximal - minimal normalized value, 8-100 s, only compound present): 0.02793 and 0.02317 and 0.02528
  pctMAXslope (GluSlope as percentage MAX): 40.7941% and 49.9185% and 35.6482%
  pctMAXslopeCMPD (CMPDSlope as percentage MAX): 27.4558% and 28.8276% and 28.6616%
[1]; 6.25e-5 M
  BaselineReturn: 0.01973 and 0.018 and 0.01152
  CMPDmaxmin: 0.02536 and 0.01826 and 0.01839
  Glumaxmin: 0.2031 and 0.2196 and 0.1717
  GluSlope: 6.2051e-6 and 9.036e-6 and 7.987e-6
[1]; 0.00025 M
  BaselineReturn: 0.05169 and 0.04966 and 0.04304 and 0.05412 and 0.05858 and 0.04633
  CMPDmaxmin: 0.05366 and 0.04763 and 0.04669 and 0.05717 and 0.05497 and 0.04716
  Glumaxmin: 0.3546 and 0.3256 and 0.3581 and 0.3601 and 0.3987 and 0.3619
  CMPDSlope: 2.511e-6 and 1.582e-6 and 1.531e-6 and 1.914e-6 and 1.992e-6 and 1.6067e-6
  GluSlope: 1.516e-5 and 1.442e-5 and 1.434e-5 and 1.326e-5 and 1.8177e-5 and 1.566e-5
[1]; 0.0005 M
  BaselineReturn: 0.1016 and 0.09236 and 0.09814 and 0.1005 and 0.08945 and 0.09494
  CMPDmaxmin: 0.09292 and 0.08599 and 0.08883 and 0.08871 and 0.09266 and 0.08518
  Glumaxmin: 0.4227 and 0.415 and 0.4148 and 0.4609 and 0.4831 and 0.4327
  CMPDSlope: 3.674e-6 and 4.188e-6 and 3.738e-6 and 3.852e-6 and 5.683e-6 and 4.257e-6
  GluSlope: 1.777e-5 and 1.508e-5 and 1.548e-5 and 1.731e-5 and 1.8778e-5 and 1.858e-5
[1]; 0.001 M
  BaselineReturn: 0.1819 and 0.178 and 0.2248 and 0.2011 and 0.1897 and 0.1856
  CMPDmaxmin: 0.1715 and 0.1673 and 0.213 and 0.1892 and 0.174 and 0.1789
  Glumaxmin: 0.4573 and 0.4826 and 0.4107 and 0.4115 and 0.4861 and 0.4796
  CMPDSlope: 9.085e-6 and 8.904e-6 and 9.403e-6 and 8.729e-6 and 8.585e-6 and 8.384e-6
  GluSlope: 1.548e-5 and 1.672e-5 (2×) and 1.1033e-5 and 1.693e-5 and 1.578e-5
[1]; HEK293, read-out: AVE %MAXCMPDslope, 0.00025 M, average of wells
  activity at 250 µM: 30.3%
[1]; HEK293, read-out: AVE %MAXCMPDslope, 0.0005 M, average of wells
  activity at 500 µM: 34.5%
[1]; HEK293, read-out: AVE %MAXCMPDslope, 0.001 M, average of wells
  activity at 1000 µM: 42.6%
[1]; HEK293, read-out: AVE %MAXCMPDslope, […], average of wells
  activity at […]: 29.5%
[1]; HEK293, read-out: AVE %MAXslope, 0.00025 M, average of wells
  activity at 250 µM: 53.6%
[1]; HEK293, read-out: AVE %MAXslope, 0.0005 M, average of wells
  activity at 500 µM: 57.1%
[1]; HEK293, read-out: AVE %MAXslope, 0.001 M, average of wells
  activity at 1000 µM: 54.1%
[1]; HEK293, read-out: AVE %MAXslope, […], average of wells
  activity at […]: 47%
[1]; HEK293, read-out: pctMAX, 0.00025 M, Glumaxmin as percentage MAX (vhl and glutamate controls)
  activity at 250 µM: 30.3%
[1]; HEK293, read-out: pctMAX, 0.0005 M, Glumaxmin as percentage MAX (vhl and glutamate controls)
  activity at 500 µM: 42.2%
[1]; HEK293, read-out: pctMAX, 0.001 M, Glumaxmin as percentage MAX (vhl and glutamate controls)
  activity at 1000 µM: 48.3%
[1]; HEK293, read-out: pctMAXslope, 0.00025 M, GluSlope as percentage MAX
  activity at 250 µM: 53.6%
[1]; HEK293, read-out: pctMAXslope, 0.0005 M, GluSlope as percentage MAX
  activity at 500 µM: 58.2%
[1]; HEK293, read-out: pctMAXslope, 0.001 M, GluSlope as percentage MAX
  activity at 1000 µM: 54.2%
[1]; HEK293, read-out: pctMAXslope, […], GluSlope as percentage MAX
  activity at […]: 49.2%
[1]; HEK293, read-out: pctMAXslopeCMPD, 0.00025 M, CMPDSlope as percentage MAX
  activity at 250 µM: 31.5%
[1]; HEK293, read-out: pctMAXslopeCMPD, 0.0005 M, CMPDSlope as percentage MAX
  activity at 500 µM: 33.5%
[1]; HEK293, read-out: pctMAXslopeCMPD, 0.001 M, CMPDSlope as percentage MAX
  activity at 1000 µM: 43%
[1]; HEK293, read-out: pctMAXslopeCMPD, […], CMPDSlope as percentage MAX
  activity at […]: 28.5%
[1]; compound-only window
  concentrations giving a slight increase in fluorescence in the absence of glutamate: > 250 µM
[2]
  pEC50: 3.25
[3]; 3.90625e-6 M ligand, per well
  CMPDmaxmin: 0.02275 and 0.02429 and 0.01798 and 0.02168
[3]; 7.8125e-6 M ligand, per well
  CMPDmaxmin: 0.02523 and 0.02353 and 0.02165 and 0.01735
  Glumaxmin: 0.04101 and 0.05338 and 0.04284 and 0.03307 and 0.0299 and 0.0291
[3]; 6.25e-5 M ligand, per well
  CMPDmaxmin: 0.02083 and 0.02655 and 0.02189 and 0.02084 and 0.01632
  Glumaxmin: 0.04091 and 0.0333 and 0.02423 and 0.04193 and 0.044 and 0.03344
[3]; 0.00025 M ligand, per well
  BaselineReturn: 0.0251 and 0.02832 and 0.03028 and 0.03411 and 0.02776 and 0.02771
  CMPDmaxmin: 0.02518 and 0.02777 and 0.02573 and 0.03151 and 0.03447 and 0.02604
  Glumaxmin: 0.07039 and 0.07337 and 0.08523 and 0.112 and 0.08025
  GluSlope: 6.934e-6 and 8.592e-6 and 7.437e-6 and 1.202e-5 and 1.111e-5 and 6.283e-6
[3]; 0.0005 M ligand, per well
  BaselineReturn: 0.05295 and 0.05148 and 0.05075 and 0.04719 and 0.05673 and 0.04937
  CMPDmaxmin: 0.05637 and 0.05305 and 0.05109 and 0.05302 and 0.05564 and 0.06158
  Glumaxmin: 0.1143 and 0.1458 and 0.1743
  CMPDSlope: 2.7882e-6 and 3.22e-6 and 3.04e-6 and 3.857e-6 and 3.969e-6 and 3.136e-6
  GluSlope: 1.038e-5 and 1.007e-5 and 1.121e-5 and 1.228e-5 and 1.22e-5 and 1.66e-5
[3]; 0.001 M ligand, per well
  BaselineReturn: 0.1285 and 0.1243 and 0.1327 (2×) and 0.1383 and 0.1333
  CMPDmaxmin: 0.1223 and 0.1248 and 0.1314 and 0.1303 and 0.1374 and 0.1301
  CMPDSlope: 6.79e-6 and 6.675e-6 and 5.635e-6 and 5.488e-6 and 6.247e-6 and 7.073e-6
[3]; HEK293, read-out: AVE %MAXCMPDslope, 0.00025 M ligand, average over wells
  activity at 250 µM: 20.2%
[3]; HEK293, read-out: AVE %MAXCMPDslope, 0.001 M ligand, average over wells
  activity at 1000 µM: 29.1%
[3]; HEK293, read-out: AVE %MAXCMPDslope, […] ligand, average over wells
  activity at […]: 18.9%
[3]; HEK293, read-out: AVE %MAXslope, 0.00025 M ligand, average over wells
  activity at 250 µM: 33.8%
[3]; HEK293, read-out: AVE %MAXslope, 0.0005 M ligand, average over wells
  activity at 500 µM: 40.3%
[3]; HEK293, read-out: AVE %MAXslope, 0.001 M ligand, average over wells
  activity at 1000 µM: 54.1%
[3]; HEK293, read-out: AVE %MAXslope, […] ligand, average over wells
  activity at […]: 25.6%
[3]; HEK293, read-out: pctMAXslope, 0.00025 M ligand, GluSlope as percentage MAX, per well
  activity at 250 µM: 30.3%
[3]; HEK293, read-out: pctMAXslope, 0.0005 M ligand, GluSlope as percentage MAX, per well
  activity at 500 µM: 37%
[3]; HEK293, read-out: pctMAXslope, […] ligand, GluSlope as percentage MAX, per well
  activity at […]: 21%
[3]; HEK293, read-out: pctMAXslopeCMPD, 0.00025 M ligand, CMPDSlope as percentage MAX of GluSlope controls, per well
  activity at 250 µM: 19.4%
[3]; HEK293, read-out: pctMAXslopeCMPD, 0.0005 M ligand, CMPDSlope as percentage MAX of GluSlope controls, per well
  activity at 500 µM: 22.3%
[3]; HEK293, read-out: pctMAXslopeCMPD, 0.001 M ligand, CMPDSlope as percentage MAX of GluSlope controls, per well
  activity at 1000 µM: 30%
[3]; HEK293, read-out: pctMAXslopeCMPD, […] ligand, CMPDSlope as percentage MAX of GluSlope controls, per well
  activity at […]: 18.5%
